Assay results reported in publication PMC7023381, “Sulfonamide Inhibition Profile of the β-Carbonic Anhydrase from Malassezia restricta, An Opportunistic Pathogen Triggering Scalp Conditions” (Metabolites, 2020).
Like-named read-outs stand apart in the source and are kept apart here.

Target: T1, MreCA (Malassezia restricta, UniProt A0A3G2S4B9)
T1 construct: gene can; recombinant from synthetic gene in pET100D-Topo, E. coli BL21(DE3) codon plus; N-terminal His6-tag fusion, 27 kDa on SDS-PAGE; no tag cleavage told
T1 sequence (A0A3G2S4B9 1-238): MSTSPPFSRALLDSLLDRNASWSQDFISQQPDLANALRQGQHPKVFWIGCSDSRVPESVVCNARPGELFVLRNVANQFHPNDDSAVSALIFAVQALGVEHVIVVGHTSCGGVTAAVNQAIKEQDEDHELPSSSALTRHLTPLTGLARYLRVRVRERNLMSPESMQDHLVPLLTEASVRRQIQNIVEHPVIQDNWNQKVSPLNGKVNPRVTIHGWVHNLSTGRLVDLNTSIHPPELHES
Test: stopped-flow CO2 hydrase assay
Type: biochemical

| SMILES | Ki (read-out: MreCA) [µM] | Ki [µM] |
| --- | --- | --- |
| CCN[C@H]1CN(CCCOC)S(=O)(=O)c2sc(S(N)(=O)=O)cc21 [BRZ] | 0.7 |  |
| NS(=O)(=O)c1nnc(NS(=O)(=O)c2ccccc2)s1 [BZA] | 7.15 |  |
| Cc1ccc(-c2cc(C(F)(F)F)nn2-c2ccc(S(N)(=O)=O)cc2)cc1 [CLX] | 1.4 |  |
| NS(=O)(=O)c1cc(Cl)c(Cl)c(S(N)(=O)=O)c1 [DCP] | 3.06 |  |
| NC(N)=Nc1nc(CSCCC(N)=NS(N)(=O)=O)cs1 [FAM] | > 10 |  |
| NS(=O)(=O)c1cc2c(cc1Cl)NCNS2(=O)=O [HCT] | 8.5 |  |
| NS(=O)(=O)c1ccc(S(=O)(=O)Nc2cccc3c(Cl)c[nH]c23)cc1 [IND] | 0.87 |  |
| CC(=O)N=c1sc(S(N)(=O)=O)nn1C [MZA] | 3.9 |  |
| O=C1NS(=O)(=O)c2ccccc21 [SAC] | 6.2 |  |
| CCN1CCCC1CNC(=O)c1cc(S(N)(=O)=O)ccc1OC (stereo not drawn) [SLP] | 4.85 |  |
| NS(=O)(=O)c1ccc(N2CCCCS2(=O)=O)cc1 [SLT] | 0.67 |  |
| CC1(C)O[C@@H]2[C@@H](CO[C@@]3(COS(N)(=O)=O)OC(C)(C)O[C@@H]23)O1 [TPM] | 3.83 |  |
| Cc1onc(-c2ccccc2)c1-c1ccc(S(N)(=O)=O)cc1 [VLX] | 0.77 |  |
| NS(=O)(=O)Cc1noc2ccccc12 [ZNS] | > 10 |  |
| Nc1ccc(S(N)(=O)=O)cc1 [compound 2, 2] | 4.62 |  |
| NS(=O)(=O)c1cccc(S(N)(=O)=O)c1 [compound 3, 3] | > 10 |  |
| Cc1ccc(S(N)(=O)=O)cc1 [compound 4, 4] | 4.04 |  |
| NCc1ccc(S(N)(=O)=O)cc1 [compound 5, 5] | > 10 |  |

| SMILES | Ki (read-out: MreCA) [µM] | Ki [µM] |
| --- | --- | --- |
| NCCc1ccc(S(N)(=O)=O)cc1 [compound 6, 6] |  | > 10 |
| Nc1ccc(S(N)(=O)=O)cc1F [compound 7, 7] | 4.59 |  |
| Nc1ccc(S(N)(=O)=O)cc1Cl [compound 8, 8] | > 10 |  |
| Nc1ccc(S(N)(=O)=O)cc1Br [compound 9, 9] | > 10 |  |
| NS(=O)(=O)c1cc(Cl)cc(Cl)c1O [compound 10, 10] | > 10 |  |
| Nc1cc(C(F)(F)F)c(S(N)(=O)=O)cc1S(N)(=O)=O [compound 11, 11] | 6.76 |  |
| Nc1cc(Cl)c(S(N)(=O)=O)cc1S(N)(=O)=O [compound 12, 12] | > 10 |  |
| Nc1nnc(S(N)(=O)=O)s1 [compound 13, 13] | > 10 |  |
| Cn1nc(S(N)(=O)=O)sc1=N [compound 14, 14] | > 10 |  |
| NS(=O)(=O)c1ccc(O)cc1 [compound 15, 15] | > 10 |  |
| NS(=O)(=O)c1ccc(CO)cc1 [compound 16, 16] | 6.51 |  |
| NS(=O)(=O)c1ccc(CCO)cc1 [compound 17, 17] | > 10 |  |
| NS(=O)(=O)c1ccc(C(=O)O)cc1 [compound 18, 18] | > 10 |  |
| Nc1nccc(Nc2ccc(S(N)(=O)=O)cc2)n1 [compound 19, 19] | 7.79 |  |
| Nc1ccc(S(=O)(=O)Nc2nnc(S(N)(=O)=O)s2)cc1 [compound 20, 20] | 0.91 |  |
| Nc1ccc(S(=O)(=O)Nc2ccc(S(N)(=O)=O)cc2)cc1 [compound 22, 22] | 3.74 |  |
| Nc1ccc(S(=O)(=O)NCc2ccc(S(N)(=O)=O)cc2)cc1 [compound 23, 23] | > 10 |  |
| Nc1ccc(S(=O)(=O)NCCc2ccc(S(N)(=O)=O)cc2)cc1 [compound 24, 24] | > 10 |  |
